Measurements reported in PubChem BioAssay AID977606 (Broad Institute, 2014).
Activity calls are given as the source filed them. How the calls were made is not given here.

Test system: INS-1E Gaussia luciferase insulin secretion, no glucose, luminescence
Assay: insulin secretion activators without glucose, dose response, counter-screen for glucose-dependent insulin secretion activators, cell-based, INS-1E, Gaussia luciferase, luminescence, cherry-pick (AID 977606)

SMILES | AC40
COc1ccc(C(CCNCc2ccc(OC(C)C)cc2)C(C)C)cc1 (stereo not drawn) | 12.3 µM
O=C(Nc1nnc(-c2ccc(F)cc2)s1)C1CCN(S(=O)(=O)c2ccc(Cl)cc2)CC1 | 5.13 µM
O=C(N/N=C\c1ccc(CNS(=O)(=O)c2ccc(Cl)cc2)o1)C(=O)Nc1ccc(Oc2ccccc2)cc1 | 1.8 µM
COc1ccnc(N2CCN(c3cccc(C(F)(F)F)c3)CC2)c1C#N | 10.1 µM
COC(=O)c1cnn(-c2nc(-c3ccccc3)cs2)c1N | 20.4 µM
O=C(Nc1nnc(-c2ccccc2SCc2ccccc2F)s1)Nc1ccccc1F | 12.8 µM
CCOc1ccc(-n2nnnc2-c2nc3ccccc3s2)cc1 | 12.2 µM
CC(C)(C)OC(=O)N[C@@H](Cc1ccccc1)c1nnc(S(=O)(=O)Cc2ccccc2)o1 | 2.63 µM
Cc1cccc(S(=O)(=O)N2CCCCN3[C@@H](CO)[C@@H](c4ccc(C#CC(C)C)cc4)[C@@H]3C2)c1 | 7.76 µM
OC(CNCCC1C=Nc2ccccc21)Cn1c2ccc(Cl)cc2c2cc(Cl)ccc21 (stereo not drawn) | 9.56 µM
O=C(c1cccs1)c1coc2ccc(O)c(CN3CCOCC3)c12 | > 35 µM (inactive)
Cc1cccn2cc(CNS(=O)(=O)c3ccc4ccccc4c3)nc12 | 2.91 µM
Cc1ccc(SC[C@H](C)CN2CC[C@H](C(C)(C)C)CCC2=O)cc1 | 4.93 µM
COc1ccc(-c2ccc3c(N)c(C(=O)c4ccc(OC)c(OC)c4)sc3n2)cc1 | 6.27 µM
OC(c1ccccc1)(c1ccccc1)C1CCN(CCCOc2ccc(-c3ccc(F)cc3F)cc2)CC1 | 1.29 µM
CCSc1nnc(NC(=O)c2csc3c2CCCC3)s1 | 5.49 µM
COc1cccc(OCc2nc3c4cnn(-c5ccccc5)c4ncn3n2)c1 | 6.42 µM
O=C(N/N=C/c1ccc(Cl)cc1Cl)Nc1ccccc1 | 7.4 µM
O=C(NCCC1=CCCCC1)C(=O)NCC(c1ccco1)N1CCN(c2ccccc2)CC1 (stereo not drawn) | 3.54 µM
Cc1c(C(=O)OCC(=O)N2CC(=O)Nc3ccccc32)oc2ccc(Br)cc12 | 5.24 µM
COc1ccc(Br)cc1C(=O)Nc1cc(C)cc(C)c1 | 6.69 µM
O=C(NCC1OCCc2ccccc21)c1ccc(NC(=O)c2cccc(Br)c2)cc1 (stereo not drawn) | 11.1 µM

SMILES | AC40
CCOc1ccc(-c2nnn(CC(=O)Nc3ccccc3OC)n2)cc1OCC | 7.27 µM
CN(C)CCOc1ccc(-c2c(-c3ccccc3)sc3ccccc23)cc1 | 1.97 µM
Cc1nc2c(-c3ccc(F)cc3)cnn2c2c1CCC2 | 20.1 µM
COc1ccc(C)cc1NCc1cc(=O)oc2cc(-c3ccccc3)c(O)cc12 | 23.6 µM
CCCCCCN1C[C@H](n2cc(COC(=O)c3ccccc3)nn2)[C@@H](O)C[C@@H]1c1ccc(C)cc1 | 8.37 µM
Cc1cccc(-c2ccc(C3[C@@H]4CN(C(=O)Nc5ccc(C(F)(F)F)cc5)C[C@H]3N4)cc2)c1 (stereo partly drawn) | 1.7 µM
COc1ccccc1CCn1cnc(-c2cccc(F)c2)c1C(C)C | 11.6 µM
COc1ccc(Br)cc1C(=O)Nc1cccc(C)c1 | 9.88 µM
COc1cc2ccccc2cc1C(=O)Nc1ccc2oc(=O)ccc2c1 | 9.12 µM
COc1ccc(C(=O)c2sc(Nc3ccccc3)nc2N)cc1OC | 26.5 µM
COc1ccc(C(=O)NC(=S)Nc2ccc3c4c(cccc24)CC3)cc1OC | 6.85 µM
CCCCc1c(-c2cccc(OC)c2)ncn1CCc1ccccc1OC | 7.6 µM
O=C(NCc1ccccn1)c1coc(=O)c(Br)c1 | 1.59 µM
C/C=C/c1ccc(C2[C@H]3CNC[C@@H]2N3Cc2cc(-c3ccccc3)on2)cc1 (stereo partly drawn) | 6.73 µM
CCCc1cc(-c2nc(-c3ccc(C)cc3)cs2)ccn1 | 7.92 µM
CCCCCc1c(Cc2ccccc2)ncn1CCc1ccccc1OC | 8.28 µM
Cc1cc2c(cc1C)CSC(c1c(O)ccc3ccccc13)SC2 | 17.9 µM
FC(F)(F)c1cc(CCN2CCNC[C@@H]2CC2CCCCC2)cc(C(F)(F)F)c1 | 4.05 µM
O=C(CCN1CCOCC1)c1ccccc1 | 10.3 µM
CCOC(=O)[C@]12Cc3c(cc(OC)c(OC)c3OC)[C@H]1N(C1CCCCC1)C(=O)c1cc(OC)ccc12 | 6 µM
CC(C)NC(=O)OC[C@H]1O[C@H](C#Cc2ccc(C(C)(C)C)cc2)C=C[C@H]1O | 20.3 µM
